Read-outs that look alike come from different tables or passages of the source.
Experiments:
PL11 cells = assay: Tat independent transactivation counter-screen with TNFα, PL11 cells; assay type: cell-based; settings: PL11 cells activated with TNFα
Source text: Tat is a 14 kDa protein that is synthesized from an mRNA joined from 2 coding exons (FIG. 1B). The first exon encodes amino acids 1-72 and (in most strains of HIV), the second exon encodes amino acids 73-101. An N-terminal 86-amino acid form of Tat produced in a few laboratory-passaged virus strains is frequently used to study Tat. The classic cell-based Tat transactivation assay of the HIV LTR driving luciferase was optimized as a reporter gene for HTS9 (FIG. 2A). The assay concept is exceptionally robust, includes all the cellular components needed for transcriptional activation, and is very well-suited for an HTS for Tat antagonists. Compared with alternative approaches, this classic assay consistently outperformed the others. […] LTR activation is triggered by transfection of a plasmid expressing HIV-1HXB3 Tat (101 a.a.) driven by the phosphoglycerate (PGK) promoter. The assay called “Tat-TAR assay” was validated, and found robust and very well suited for an HTS platform, with a signal to background ratio of 407:1, a signal to noise ratio of 10:1, and a Z′=0.67. The cytotoxicity screen was performed in parallel (Cell-Titer-Glo, Promega), showing a signal to background ratio 898:1, signal to noise ratio 21:1 and a Z′=0.86. […] These hits were counter-screened in a Tat independent transactivation assay using TNFα to activate PL11 cells, resulting in the selection of 30 hits.

HIV NL4.3 strain = assay: HIV infectivity assay, reporter cell line HeLa-CD4-LTR-LacZ, β-Gal activity (Tat protein inhibition); assay type: cell-based, HIV-1 (NL4.3)
How it was run: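 HeLa-CD4-LTR-LacZ reporter cells (β-Gal under HIV 5′ LTR) infected with HIV NL4.3; β-Gal activity read 72 h post infection, with parallel Cell-Titer-Glo viability. OM10.1 carry a single wild-type provirus; ACH-2 a single provirus with TAR C37T mutation, defective Tat-TAR feedback.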

Tat or GFP mRNA = Tat or GFP mRNA expression in HEK293T cells; assay type: cell-based; settings: n=3
Flag-Tat and GFP = Flag-Tat and GFP (Human immunodeficiency virus type 1 (HXB3 ISOLATE), UniProt P69698); assay: J-Lat A2 cells stimulated with TNF-α, western blot of Flag-Tat and GFP; assay type: cell-based, HIV; settings: TNF-α 20 ng/mL, 17 hours
Procedure: FIG. 5. […] Triptolide: 1 nM, TT-44856 and TT-44863: 40 μM, TT-44881: 60 μM. […] C. Impact of the lead hits on J-Lat A2 cells upon 17 hours stimulation with TNF-α (20 ng/mL). EPL: 10 μM, Triptolide (TRP): 1 nM, TT-44856 and TT-44863: 40 μM, TT-44881: 60 μM. […] Triptolide: 1 nM, TT-44856 and TT-44863: 40 μM, TT-44881: 60 μM.
Next, the effect of the three leads on the alteration of Tat steady state levels was assessed. Tat expression from an integrated provirus, or from HIV acute infection is generally too low to be detected by western blot. Furthermore, antibodies against Tat are known for their lack of avidity. Tat degradation was thus assessed upon transfection. Flag-Tat or Flag-GFP were individually transfected into HEK293T and 24 hrs later, TT-44856, TT-44863 or TT-44881 were added to the culture, followed by Western blot 24 hrs later (dubbed “degradation assay”) (FIG. 5A). […] Finally, the leads' impact on recombinant Tat protein in HEK293T cells was assessed (FIG. 5D). HEK293T cells were incubated with recombinant Tat for 4 hrs to allow Tat internalization, followed by several thorough washes to remove unincorporated Tat. Cells were then incubated with all three leads (or Triptolide) for an additional 2 hrs. Cells were lysed and analyzed by western blot with an anti-Tat serum.

Tat Y26A = Tat Y26A (Human immunodeficiency virus type 1 (HXB3 ISOLATE), UniProt P69698, Y26A); settings: TT-44856 and TT-44863 40 μM, TT-44881 60 μM
Source text: (§1) The molecular docking of HIV Tat protein bound to dCA was previously reported, informed by a series of more than 60 analogs of dCA, using AutoDock Vina with the NMR HIV Tat Mal protein (D clade) as a template (Protein data Bank, PDB entry 1K5K)21. […] Single changes to residues Y26 and F38 decrease Tat transactivation activity^33-36. […] To validate the molecular docking model, Tat variants with either deletions or mutated residues were used in degradation assays in the presence of leads.

[1] = biological target: Tat variants with cysteine or core regions truncated (Human immunodeficiency virus type 1 (HXB3 ISOLATE), UniProt P69698); settings: TT-44856 and TT-44863 40 μM, TT-44881 60 μM
Source text: as §1

Tat F38A = Tat F38A (Human immunodeficiency virus type 1 (HXB3 ISOLATE), UniProt P69698, F38A); settings: TT-44856 and TT-44863 40 μM, TT-44881 60 μM
Source text: as §1

Tat lysine mutants = settings: TT-44881 60 μM; for Tat degradation, single or combined lysine mutations / Tat degradation, additional lysine mutations to K28R, K29R and K41R: TT-44856 40 μM; for Tat degradation, single or combined lysine mutations / Tat degradation, K28R, K29R and K41R: n=1; for Tat degradation, additional lysine mutations to K28R, K29R and K41R: n=2; for Tat degradation, K28R, K29R and K41R: TT-44856 and TT-44863 40 μM
Source text: Tat 86 a.a. has 9 lysine residues (FIG. 8D) that could be engaged by lysine 48-linked ubiquitin chains or nonconventional ubiquitin chains, i.e., non-Lys-48 or non-Lys-63, to be degraded through the 26S proteasomal pathway^3738. […] Tat lysine residues required for leads' degradation engagement can be determined.
In addition to K28-29-K41R, other Tat's lysine residues were mutated and degradation assays performed in the presence of TT-44881 or TT-44856.

[2] = Human immunodeficiency virus 1, 72 h, read-out: IC50 against HIV infection, HeLa-CD4-LTR-LacZ, HIV NL4.3, β-Gal 72 hrs post infection

Sequence of Tat Y26A (P69698 whole entry Y26A): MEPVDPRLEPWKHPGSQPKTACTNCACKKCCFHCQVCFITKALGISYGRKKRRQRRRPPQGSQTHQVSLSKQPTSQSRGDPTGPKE
Sequence of Tat F38A (P69698 whole entry F38A): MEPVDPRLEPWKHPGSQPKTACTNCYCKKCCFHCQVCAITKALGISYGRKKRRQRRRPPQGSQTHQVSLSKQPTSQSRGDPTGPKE
Sequence of Flag-Tat and GFP (P69698 whole entry): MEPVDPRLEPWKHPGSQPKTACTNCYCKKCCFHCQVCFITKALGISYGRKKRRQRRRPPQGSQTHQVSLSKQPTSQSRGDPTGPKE

Compound | Tat specificity in TNFα counter-screen (PL11 cells) | IC50 (HIV NL4.3 strain; [2]) [µM] | IC50 (HIV NL4.3 strain; Human immunodeficiency virus 1, read-out: Infectivity IC50, HeLa-CD4-LTR-LacZ, analogs of TT-44881 (Table 1)) [µM] | effect on Tat or GFP mRNA expression (Tat or GFP mRNA) | Flag-Tat and GFP levels in J-Lat A2 cells (Flag-Tat and GFP) | Tat degradation, Y26A mutation (Tat Y26A) | Flag-Tat degradation, cysteine or core regions truncated [1] | Tat degradation, F38A mutation (Tat F38A) | Tat degradation, single or combined lysine mutations (Tat lysine mutants) | Tat degradation, additional lysine mutations to K28R, K29R and K41R (Tat lysine mutants) | Tat degradation, K28R, K29R and K41R (Tat lysine mutants) | IC50 (HIV NL4.3 strain; Human immunodeficiency virus 1, read-out: Infectivity IC50, HeLa-CD4-LTR-LacZ, analogs of TT-44863 (Table 2)) [µM] | IC50 (HIV NL4.3 strain; Human immunodeficiency virus 1, read-out: Infectivity IC50, HeLa-CD4-LTR-LacZ, analogs of TT-44856 (Table 3)) [µM]
O=C(CCCCN1CCCC1=O)c1nn(-c2ccccc2)c2c1CCC2 [TT-44881] | Tat specific | 19.7 ± 4.5 | 1 to 20 | without affecting Flag-Tat mRNA levels | strongly reduced | ablated lead hits' ability to mediate Tat degradation | no longer degraded Flag-Tat | only weakly reduced lead hits mediated degradation | all the mutants were similarly degraded to the control | mutation of the K19 or K71 to arginine reduced TT-44881 induced Tat degradation | do not prevent lead hits induced Tat degradation |  | 
COCCOc1ccc(C(F)(F)F)cc1NC(=O)Cn1cc(C(F)(F)F)cc(Cl)c1=O [TT-44863] | Tat specific | 6 ± 1.3 |  | without affecting Flag-Tat mRNA levels | strongly reduced | ablated lead hits' ability to mediate Tat degradation | no longer degraded Flag-Tat | only weakly reduced lead hits mediated degradation |  |  | do not prevent lead hits induced Tat degradation | 1 to 10 | 
CC(C(=O)NCCCn1ccnc1)(c1ccccc1)c1ccccc1 [TT-44856] | Tat specific | 20.5 ± 9.5 |  | without affecting Flag-Tat mRNA levels | strongly reduced | ablated lead hits' ability to mediate Tat degradation | no longer degraded Flag-Tat | only weakly reduced lead hits mediated degradation | all the mutants were similarly degraded to the control | required either K50/51, K71 or K85 | do not prevent lead hits induced Tat degradation |  | 1 to 20

Source: patent US20260355184A1, “SMALL MOLECULE DEGRADERS OF HIV-1 TAT PROTEIN” (priority 2022, published 2026)
